Laboratory results from ChEMBL document CHEMBL4373692, “Structure-Based Development of (1-(3'-Mercaptopropanamido)methyl)boronic Acid Derived Broad-Spectrum, Dual-Action Inhibitors of Metallo- and Serine-β-lactamases” (J Med Chem, 2019).

How the values were obtained:
[1] = Inhibition of bacterial N-terminal His-tagged TEV protease site linked VIM-2 (27 to 266 amino acids) expressed in Escherichia coli Transetta (DE3) preincubated for 10 mins followed by FC5 fluorescent substrate addition by fluorescence assay; design: species or system Bacteria
[2] = Inhibition of bacterial N-terminal His-tagged TEV protease site linked NDM-1 (1 to 270 amino acids) expressed in Escherichia coli Transetta (DE3) preincubated for 10 mins followed by FC5 fluorescent substrate addition by fluorescence assay; design: species or system Bacteria
[3] = Inhibition of bacterial N-terminal His-tagged TEV protease site linked SFH1 (3 to 234 amino acids) expressed in Escherichia coli Transetta (DE3) preincubated for 10 mins followed by FC5 fluorescent substrate addition by fluorescence assay; design: species or system Bacteria
[4] = Inhibition of bacterial N-terminal His-tagged TEV protease site linked GOB-18 (1 to 290 amino acids) expressed in Escherichia coli Transetta (DE3) preincubated for 10 mins followed by FC5 fluorescent substrate addition by fluorescence assay; design: species or system Bacteria
[5] = Inhibition of bacterial N-terminal His-tagged TEV protease site linked KPC-2 (29 to 289 amino acids) expressed in Escherichia coli Transetta (DE3) preincubated for 10 mins followed by FC5 fluorescent substrate addition by fluorescence assay; design: species or system Bacteria
Beta-lactamase TEM = Beta-lactamase TEM (Bacteria, UniProt P62593); assay: Inhibition of bacterial N-terminal His-tagged TEV protease site linked TEM-1 (24 to 286 amino acids) expressed in Escherichia coli Transetta (DE3) preincubated for 10 mins followed by FC5 fluorescent substrate addition by fluorescence assay
Beta-lactamase TEM, sequence (P62593 whole entry, the tested form may be a part): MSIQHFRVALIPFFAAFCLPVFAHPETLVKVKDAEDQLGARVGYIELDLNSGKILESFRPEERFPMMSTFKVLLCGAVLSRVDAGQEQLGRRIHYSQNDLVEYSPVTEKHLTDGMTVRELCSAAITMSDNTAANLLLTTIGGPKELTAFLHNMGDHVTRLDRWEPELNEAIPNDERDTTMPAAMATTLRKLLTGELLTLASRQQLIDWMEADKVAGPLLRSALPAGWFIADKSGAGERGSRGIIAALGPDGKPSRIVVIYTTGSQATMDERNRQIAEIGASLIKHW

[6] = Inhibition of bacterial N-terminal His-tagged TEV protease site linked AmpC (20 to 377 amino acids) expressed in Escherichia coli Transetta (DE3) preincubated for 10 mins followed by FC5 fluorescent substrate addition by fluorescence assay; design: species or system Bacteria
[7] = Inhibition of bacterial N-terminal His-tagged TEV protease site linked OXA-48 (1 to 265 amino acids) expressed in Escherichia coli Transetta (DE3) preincubated for 10 mins followed by FC5 fluorescent substrate addition by fluorescence assay; design: species or system Bacteria
[8] = target: Angiotensin-converting enzyme 2 (Homo sapiens, UniProt Q9BYF1); assay: Inhibition of human C-terminal His/FLAG-tagged ACE-2 expressed in HEK293 cells at 100 uM preincubated for 10 mins followed by Mca-Ala-Pro-Lys(Dnp)-OH substrate addition by fluorescence assay relative to control; format: cell-based; settings: hek293, 100 µM
Angiotensin-converting enzyme 2, sequence (Q9BYF1 whole entry): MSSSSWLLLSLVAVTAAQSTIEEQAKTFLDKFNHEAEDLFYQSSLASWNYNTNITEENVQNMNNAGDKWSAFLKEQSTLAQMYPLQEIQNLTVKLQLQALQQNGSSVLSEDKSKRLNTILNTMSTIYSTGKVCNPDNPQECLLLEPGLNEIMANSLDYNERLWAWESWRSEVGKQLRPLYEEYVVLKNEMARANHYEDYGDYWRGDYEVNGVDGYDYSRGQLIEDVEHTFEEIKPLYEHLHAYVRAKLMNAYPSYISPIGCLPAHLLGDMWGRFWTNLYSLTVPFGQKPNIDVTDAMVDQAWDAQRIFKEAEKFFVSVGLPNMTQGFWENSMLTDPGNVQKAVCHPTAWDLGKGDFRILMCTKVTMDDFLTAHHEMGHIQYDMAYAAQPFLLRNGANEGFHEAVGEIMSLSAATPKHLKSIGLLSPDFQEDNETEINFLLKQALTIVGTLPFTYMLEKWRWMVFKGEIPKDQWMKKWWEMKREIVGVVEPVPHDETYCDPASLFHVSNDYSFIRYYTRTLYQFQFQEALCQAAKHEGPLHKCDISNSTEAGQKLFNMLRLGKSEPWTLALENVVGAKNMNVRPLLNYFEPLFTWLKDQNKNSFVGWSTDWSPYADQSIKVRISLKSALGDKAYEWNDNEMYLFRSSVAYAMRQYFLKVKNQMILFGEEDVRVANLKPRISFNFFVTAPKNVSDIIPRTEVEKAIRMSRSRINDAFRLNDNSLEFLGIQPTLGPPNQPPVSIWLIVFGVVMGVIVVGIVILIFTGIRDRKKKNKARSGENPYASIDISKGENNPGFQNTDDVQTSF

Structure (SMILES) | Ki [1] [µM] | Ki [2] [µM] | Ki [3] [µM] | Ki [4] [µM] | Ki [5] [µM] | Ki (Beta-lactamase TEM) [µM] | Ki [6] [µM] | Ki [7] [µM] | inhibition (INH) [8]
CC(C)[C@@H](NC(=O)[C@H](C)CS)B(O)O | 0.7 | 25.6 | 110 | 58 | 158 | > 300 | > 300 | > 300 | Not Active
C[C@H](CS)C(=O)N[C@@H](B(O)O)c1ccc2ccccc2c1 | 7.54 | 101 | 9.75 | 23.5 | 12 | 216 | 25.3 | > 300 | Not Active
O=C(CS)N[C@H](Cc1coc2ccccc12)B(O)O | 42.8 | 10.2 | 0.12 | 1.67 | 0.5 | 6.84 | 0.97 | 217 | Not Active
COc1ccc(C[C@H](NC(=O)[C@H](C)CS)B(O)O)cc1 | 0.18 | 27.2 | 0.51 | 1.72 | 1.96 | 3.36 | 1.23 | 172 | Not Active
CC(C)C[C@H](NC(=O)[C@H](C)CS)B(O)O | 0.85 | 22.8 | 6.11 | 11.1 | 36.1 | 171 | 17.7 | > 300 | Not Active
C[C@H](CS)C(=O)N[C@H](B(O)O)c1ccc2ccccc2c1 | 0.72 | 13.1 | 11.1 | 17.9 | 0.78 | 2.03 | 20.2 | > 300 | Not Active
O=C(N[C@@H](Cc1ccccc1)B(O)O)[C@@H](CS)N1C(=O)c2ccccc2C1=O | 2.41 | 57.7 | 7.76 | 32.1 | 8.65 | 32.8 | 27.4 | > 300 | –
C[C@H](CS)C(=O)NCC(=O)O | 1.68 | 22.5 | > 300 | > 300 | 140 | > 300 | > 300 | > 300 | –
CC(C)[C@H](NC(=O)[C@H](C)CS)B(O)O | 0.51 | 36.8 | 9.14 | 11.5 | 5.35 | 166 | 11.5 | > 300 | Not Active
CCCC(=O)N[C@@H](Cc1ccccc1)B(O)O | > 300 | > 300 | 9.21 | 23.5 | 107 | > 300 | 33.4 | > 300 | –
O=C(CS)N[C@@H](Cc1ccccc1)B(O)O | 3.34 | 165 | 0.48 | 1.69 | 12.4 | 18.7 | 1.56 | 50.5 | –
CCC(=O)NCB(O)O | > 300 | > 300 | > 300 | > 300 | 86.1 | 36.3 | 291 | > 300 | –
CCCC(=O)NCB(O)O | > 300 | > 300 | 5.78 | 12.1 | 38.1 | 100 | 58.5 | 102 | –
CCC(=O)N[C@@H](Cc1ccccc1)B(O)O | > 300 | > 300 | 152 | 252 | > 300 | > 300 | 158 | > 300 | –
O=C(CCS)N[C@@H](Cc1ccccc1)B(O)O | 4.04 | 191 | 0.89 | 1.64 | 19.4 | 15.8 | 1.14 | 247 | –
